# Measurements taken from patent publication US10800741B2 (ANCUREALL PHARMACEUTICAL (SHANGHAI) CO., LTD., priority 2017, dated 2020).
# Tests used:
# Format in all cases: cell-based, Human
# H1581 (FGFR1 amp) = test: In vitro growth inhibition of H1581 tumor cells (MTT/CCK8); conditions: Homo sapiens, NCI-H1581; in vitro growth inhibition (or induction of apoptosis), cells cultured 3 to 5 days, MTT (CCK8); read-out: IC50 H1581 (FGFR1 amp)
# Kasumi-1 (KIT N822K) = test: In vitro growth inhibition of Kasumi-1 tumor cells (MTT/CCK8); conditions: Homo sapiens, Kasumi 1; in vitro growth inhibition (or induction of apoptosis), cells cultured 3 to 5 days, MTT (CCK8); read-out: IC50 Kasumi-1 (KIT N822K)
# KCL-22 (BCR-ABL) = test: In vitro growth inhibition of KCL-22 tumor cells (MTT/CCK8); conditions: Homo sapiens, KCL-22; in vitro growth inhibition (or induction of apoptosis), cells cultured 3 to 5 days, MTT (CCK8); read-out: IC50 KCL-22 (BCR-ABL)
# MOLM-13 (FLT3-ITD) = test: In vitro growth inhibition of MOLM-13 tumor cells (MTT/CCK8); conditions: Homo sapiens, MOLM-13; in vitro growth inhibition (or induction of apoptosis), cells cultured 3 to 5 days, MTT (CCK8); read-out: IC50 MOLM-13 (FLT3-ITD)
# Hep3B2 (FGFR3/4+++) = test: In vitro growth inhibition of Hep3B2 tumor cells (MTT/CCK8); conditions: Homo sapiens, Hep3B; in vitro growth inhibition (or induction of apoptosis), cells cultured 3 to 5 days, MTT (CCK8); read-out: IC50 Hep3B2 (FGFR3/4+++)
# H1703 (PDGFRa amp) = test: In vitro growth inhibition of H1703 tumor cells (MTT/CCK8); conditions: Homo sapiens, NCI-H1703; in vitro growth inhibition (or induction of apoptosis), cells cultured 3 to 5 days, MTT (CCK8); read-out: IC50 H1703 (PDGFRa amp)
# Karpas 299 (NPM-ALK) = test: In vitro growth inhibition of Karpas 299 tumor cells (MTT/CCK8); conditions: Homo sapiens, KARPAS-299; in vitro growth inhibition (or induction of apoptosis), cells cultured 3 to 5 days, MTT (CCK8); read-out: IC50 Karpas 299 (NPM-ALK)
# KATO III (FGFR2 amp) = test: In vitro growth inhibition of KATO III tumor cells (MTT/CCK8); conditions: Homo sapiens, KATO III; in vitro growth inhibition (or induction of apoptosis), cells cultured 3 to 5 days, MTT (CCK8); read-out: IC50 KATO III (FGFR2 amp)
IC50 (H1581 (FGFR1 amp)),IC50 (Kasumi-1 (KIT N822K)),IC50 (KCL-22 (BCR-ABL)),IC50 (MOLM-13 (FLT3-ITD)),IC50 (Hep3B2 (FGFR3/4+++)),IC50 (H1703 (PDGFRa amp)),IC50 (Karpas 299 (NPM-ALK)),IC50 (KATO III (FGFR2 amp)),SMILES
4.93 nM,15.9 nM,9.38 nM,7.42 nM,39.3 nM,14.7 nM,466 nM,0.73 nM,CCn1nc(C(C)(C)C)cc1NC(=O)Nc1ccc(Oc2ccnc3cc(OC)c(C(=O)NC)cc23)cc1Cl [Compound 47]
133 nM,571 nM,599 nM,61.4 nM,368 nM,75.8 nM,606 nM,18.4 nM,COc1cc2nccc(Oc3ccc(NC(=O)Nc4cc(C(C)(C)C)n[nH]4)c(Cl)c3)c2cc1C(=O)N(C)C [Compound 61]
9.03 nM,8.44 nM,9.23 nM,3.92 nM,11.6 nM,9.2 nM,351 nM,0.12 nM,"CCn1nc(C(C)(C)C)cc1NC(=O)Nc1ccc(Oc2ccnc3cc(OC)c(C(N)=O)cc23)cc1Cl [Compound 27, 4-{4-[3-(5-tert-butyl-2-ethyl-2H-pyrazol-3-yl)-ureido]-3-chloro-phenoxy}-7-methoxyquinolin-6-carboxamide]"
218 nM,568 nM,163 nM,72 nM,160 nM,247 nM,> 1000 nM,11 nM,"COc1cc2nccc(Oc3ccc(NC(=O)Nc4cc(C(C)(C)C)n[nH]4)c(Cl)c3)c2cc1NC(=O)C1CCCC1 [Compound 65, cyclopentane carboxylic acid (4-{4-[3-(5-tert-butyl-2H-pyrazol-3-yl)-ureido]-3-chloro-phenoxy}-7-methoxy-quinolin-6-yl)-amide]"
> 1000 nM,> 1000 nM,> 1000 nM,> 1000 nM,> 1000 nM,> 1000 nM,> 1000 nM,> 1000 nM,"COc1cc2nccc(Oc3ccc(NC(=O)N4CCc5ccsc5C4)c(Cl)c3)c2cc1C(N)=O [Compound 74, 4-{3-chloro-4-[(4,7-dihydro-5H-thieno[2,3-c]pyridin-6-carbonyl)-amino]-phenoxy}-7-methoxyquinolin-6-carboxamide]"
> 1000 nM,> 1000 nM,> 5000 nM,> 1000 nM,> 1000 nM,> 1000 nM,> 1000 nM,> 1000 nM,"CC(C)(C)c1cc(NC(=O)Nc2ccc(Oc3ccnc4c(C(F)(F)F)cccc34)cc2Cl)no1 [Compound 114, 1-(5-tert-butyl-isoxazol-3-yl)-3-[2-chloro-4-(8-trifluoromethyl-quinolin-4-yloxy)-phenyl]-urea]"
17.7 nM,0.471 nM,2.48 nM,18.7 nM,98.7 nM,108 nM,559 nM,1.55 nM,"COc1cc2nccc(Oc3ccc(NC(=O)Nc4cc(C(C)(C)C)n[nH]4)c(C)c3C)c2cc1C(N)=O [Compound 109, 4-{4-[3-(5-tert-butyl-2H-pyrazol-3-yl)-ureido]-2,3-dimethyl-phenoxy}-7-methoxy-quinolin-6-carboxamide]"

# Further lines, the molecule ahead of its results:
SMILES,IC50 (H1581 (FGFR1 amp)),IC50 (Kasumi-1 (KIT N822K)),IC50 (KCL-22 (BCR-ABL)),IC50 (MOLM-13 (FLT3-ITD)),IC50 (Hep3B2 (FGFR3/4+++)),IC50 (H1703 (PDGFRa amp)),IC50 (Karpas 299 (NPM-ALK)),IC50 (KATO III (FGFR2 amp))
"CNC(=O)c1cc2c(Oc3ccc(NC(=O)Nc4cc(C(C)(C)C)nn4C4CCCC4)c(Cl)c3)ccnc2cc1OC [Compound 48, 4-{4-[3-(5-tert-butyl-2-cyclopentyl-2H-pyrazol-3-yl)-ureido]-3-chloro-phenoxy}-7-methoxyquinolin-6-carboxylic acid methylamide]",11.7 nM,35.7 nM,22.3 nM,11.6 nM,44.1 nM,25.9 nM,502 nM,1.36 nM
"COc1cc2nccc(Nc3ccc(NC(=O)Nc4cc(C(C)(C)C)on4)cc3Cl)c2cc1C(N)=O [Compound 100, 4-{4-[3-(5-tert-butyl-isoxazol-3-yl)-ureido]-2-chloro-phenylamino}-7-methoxy-quinolin-6-carboxamide]",271 nM,> 1000 nM,694 nM,1.01 nM,> 1000 nM,202 nM,838 nM,49.7 nM
"COc1cc2nccc(Oc3ccc(NC(=O)N(C)c4cc(C(C)(C)C)on4)c(Cl)c3)c2cc1C(N)=O [Compound 12, 4-{4-[3-(5-tert-butyl-isoxazol-3-yl)-3-methyl-ureido]-3-chloro-phenoxy}-7-methoxyquinolin-6-carboxamide]",584 nM,389 nM,114 nM,122 nM,791 nM,139 nM,> 1000 nM,103 nM
"CC(C)(C)c1cc(NC(=O)Nc2ccc(Oc3ccnc4cc(OCCN5CCOCC5)c(C(N)=O)cc34)c(Cl)c2Cl)[nH]n1 [Compound 94, 4-{4-[3-(5-tert-butyl-2H-pyrazol-3-yl)-ureido]-2,3-dichloro-phenoxy}-7-(2-morpholin-4-yl-ethoxy)-quinolin-6-carboxamide]",4.17 nM,4.22 nM,3.66 nM,1.61 nM,10.6 nM,5.03 nM,65 nM,0.89 nM
"CNC(=O)c1cc2c(Oc3ccc(NC(=O)Nc4cc(C(C)(C)C)nn4C)c(C)c3)ccnc2cc1OC [Compound 50, 4-{4-[3-(5-tert-butyl-2-methyl-2H-pyrazol-3-yl)-ureido]-3-methyl-phenoxy}-7-methoxy quinolin-6-carboxylate acid methylamide]",59.5 nM,65.6 nM,90 nM,16.2 nM,96.6 nM,14.5 nM,795 nM,0.31 nM
"CNC(=O)c1cc2c(Oc3ccc(NC(=O)N4CCCC4)c(Cl)c3Cl)ccnc2cc1OCCOC [Compound 76, 4-{2,3-dichloro-4-[(pyrrolidin-1-carbonyl)-amino]-phenoxy}-7-(2-methoxy-ethoxy)-quinolin-6-carboxylic acid methylamide]",> 1000 nM,≥ 1000 nM,> 1000 nM,> 1000 nM,> 1000 nM,370 nM,> 1000 nM,363 nM
"COCCNC(=O)c1cc2c(Oc3ccc(NC(=O)Nc4cc(C(C)(C)C)on4)c(Cl)c3)ccnc2cc1OC [Compound 17, 4-{4-[3-(5-tert-butyl-isoxazol-3-yl)-ureido]-3-chloro-phenoxy}-7-methoxyquinolin-6-carboxylic acid (2-methoxy-ethyl)-amide]",31.4 nM,71.4 nM,23.1 nM,7.72 nM,84.9 nM,168 nM,770 nM,3.9 nM
"CNC(=O)c1cc2c(Oc3ccc(NC(=O)Nc4cc(C(C)(C)C)nn4C)c(Cl)c3)ccnc2cc1OC [Compound 46, 4-{4-[3-(5-tert-butyl-2-methyl-2H-pyrazol-3-yl)-ureido]-3-chloro-phenoxy}-7-methoxy quinolin-6-carboxylic acid methylamide]",3.06 nM,14.4 nM,8.17 nM,6.98 nM,39.1 nM,8.8 nM,384 nM,0.98 nM
"COCCN1CCN(CCCOc2cc3nccc(Oc4ccc(NC(=O)Nc5cc(C(C)(C)C)n[nH]5)c(Cl)c4)c3cc2C(N)=O)CC1 [Compound 85, 4-{4-[3-(5-tert-butyl-2H-pyrazol-3-yl)-ureido]-3-chloro-phenoxy}-7-{3-[4-(2-methoxy-ethyl)-piperazin-1-yl]-propoxy}-quinolin-6-carboxamide]",14.2 nM,6.49 nM,33.1 nM,2.83 nM,16.8 nM,14 nM,263 nM,1.92 nM
"CNC(=O)c1cc2c(Oc3ccc(NC(=O)Nc4cc(C(C)(C)C)nn4C)c(Cl)c3Cl)ccnc2cc1OCCOC [Compound 60, 4-{4-[3-(5-tert-butyl-2-methyl-2H-pyrazol-3-yl)-ureido]-2,3-dichloro-phenoxy}-7-(2-methoxy-ethoxy)-quinolin-6-carboxylic acid methylamide]",1.31 nM,0.493 nM,1.05 nM,0.89 nM,5.2 nM,6.71 nM,12.4 nM,0.36 nM
"CCC(=O)Nc1cc2c(Oc3ccc(NC(=O)Nc4cc(C(C)(C)C)n[nH]4)c(Cl)c3)ccnc2cc1OC [Compound 64, N-(4-{4-[3-(5-tert-butyl-2H-pyrazol-3-yl)-ureido]-3-chloro-phenoxy}-7-methoxyquinolin-6-yl)-propionamide]",8.64 nM,34.2 nM,17.4 nM,8.78 nM,19 nM,13.1 nM,186 nM,0.63 nM
